Assay results: patent US20070142395A1, “Treatment of sexual dysfunction with 1-[3-[4-(3-chlorophenyl)-1-piperazinyl]propyl]-5-methoxy-3,4-dihydro-2(1H)-quinolone or salt thereof” (Vela Pharmaceuticals, Inc., priority 2005, published 2007)

Tests used:
patients with MDD [1] = assay: CSFQ shift analysis (sexual dysfunction / no sexual dysfunction by threshold), same clinical study; assay type: in vivo, Humans; details: shift baseline to Day 56, LOCF, 5 mg BID
Experimental: (§1) A double-blind, randomized, placebo-controlled, parallel-group study was performed to evaluate the efficacy, safety and tolerability of OPC-14523 in patients with MDD. The patients selected for participation in the trial had to meet DSM-IV-TR criteria for MDD (296.2x or 296.3x; diagnosis via MINI) and had had symptoms of depression for at least 2 months before the start of the double-blind treatment. Among other drugs prohibited during the study, patients were prohibited from taking drugs used to enhance sexual function, including, but not limited to, sildenafil, tadalafil and vardenafil, or taking psychopharmacologic drugs.
Each patient was expected to participate for up to 10 weeks. The 10 weeks included: i) a 4- to 10-day screening period, during which potential participants were administered placebo in a single-blind manner; ii) an 8-week double-blind treatment period; and iii) a 4- to 10- day post-treatment visit period. Baseline evaluations, including assessment of sexual function, were conducted on Day −1. The next day, Day 1, the double-blind medication was begun. All treatment was on an outpatient basis.
The dosages studied were 5 mg BID OPC-14523 (10 mg total daily dose of immediate release tablet of Example 1) and placebo. The drugs were taken after meals in the morning and in the evening, about 12 hours apart.
Data on sexual function were collected using the Changes in Sexual Function Questionnaire (CSFQ). The CSFQ is a 14-item self-report measure of sexual functioning vis-â-vis experiences of pleasure, desire, arousal, and orgasm, with a 5-point response option for each item. The 14-item validated CSFQ was developed from a questionnaire comprising 35 and 36 items for female and male respondents, respectively (Clayton et al., Psychopharmacol Bull. 33(4):731-45 (1997) and Clayton et al., Psychopharmacol Bull. 33(4):747-53 (1997), each incorporated herein by reference in its entirety). The CSFQ has also been independently validated (Bobes et al., J Sex Marital Ther. 26(2): 119-31(2000)). The 14-item CSFQ includes items 8, 11, 14, 19-24 from the interview version of the CSFQ (“CSFQ-I”); Clayton et al., Psychopharmacol Bull. 33(4):731-45 (1997)). The CSFQ differs for men and women, reflecting some variation in wording of items. Males were given the male clinical version, CSFQ-M-C, and women were given the female clinical version, CSFQ-F-C. CSFQ-F-C includes items 25, 27, 28, 30 and 31 from the questions for women on the CSFG-I. CSFQ-M-C includes items 28-32 from the questions for men on the CSFQ-I, as well as item 25 from the questions for women.
The 14-item CSFQ has subscales for sexual pleasure (1 item), desire/frequency (2 items), desire/interest (3 items), arousal (3 items), and orgasm (3 items). In addition, a 14-item total score may be calculated. Higher scores are indicative of more favorable sexual functioning. Threshold scores for total and sub-scales have been defined. A score below the threshold score indicates dysfunction.
The construction of shift tables is a routine analysis that is often carried out in the analysis of clinical trial data. For the data herein, the analysis was constructed by categorizing the subjects' scores at baseline and then separately at Day 56 according to having sexual dysfunction (SD) or no sexual dysfunction (NSD). These categories were defined by the threshold values specified in the CSFQ (see Table 4). The cross-classification of the baseline categories with the Day 56 categories results in a 2×2 table with the cells NSD/NSD, NSD/SD, SD/NSD, and SD/SD. Two categories represent the number and percent of subjects who stayed in the same category from baseline to Day 56 (NSD/NSD and SD/SD cells). The other two categories represent the number and percentage of subjects who shifted either for better (SD/NSD cell) or worse (NSD/SD cell). In the tables below, “remained low” refers to the SD/SD category. […]

patients with MDD [2] = assay: Efficacy on MDD, main indication of the clinical trial; assay type: in vivo, Humans; details: main indication in the clinical trial; 5 mg BID, 8 weeks
Experimental: as §1

## COc1cccc2c1CCC(=O)N2CCCN1CCN(c2cccc(Cl)c2)CC1 [OPC-14523, 1-[3-[4-(3-chlorophenyl)-1-piperazinyl]propyl]-5-methoxy-3,4-dihydro-2(1H)-quinolone]
Patients with MDD [1]; all patients (men and women)
  CSFQ Arousal/Excitement: Improved (Low→Normal), %: 6%
  CSFQ Arousal/Excitement: Remained Low, %: 84%
  CSFQ Arousal/Excitement: Remained Normal, %: 7%
  CSFQ Arousal/Excitement: Worsened (Normal→Low), %: 3 (3%)
  CSFQ Desire/Frequency: Improved (Low→Normal), %: 13%
  CSFQ Desire/Frequency: Remained Low, %: 75%
  CSFQ Desire/Frequency: Remained Normal, %: 9%
  CSFQ Desire/Frequency: Worsened (Normal→Low), %: 3%
  CSFQ Desire/Interest: Improved (Low→Normal), %: 7%
  CSFQ Desire/Interest: Remained Low, %: 78%
  CSFQ Desire/Interest: Remained Normal, %: 12%
  CSFQ Desire/Interest: Worsened (Normal→Low), %: 3 (3%)
  CSFQ Orgasm/Completion: Improved (Low→Normal), %: 12%
  CSFQ Orgasm/Completion: Remained Low, %: 64%
  CSFQ Orgasm/Completion: Remained Normal, %: 17%
  CSFQ Orgasm/Completion: Worsened (Normal→Low), %: 7%
  CSFQ Pleasure: Improved (Low→Normal), %: 5%
  CSFQ Pleasure: Remained Low, %: 91%
  CSFQ Pleasure: Remained Normal, %: 3%
  CSFQ Pleasure: Worsened (Normal→Low), %: 0 (0%)
  CSFQ Total Score: Improved (Low→Normal), %: 16%
  CSFQ Total Score: Remained Low, %: 42%
  CSFQ Total Score: Remained Normal, %: 39%
  CSFQ Total Score: Worsened (Normal→Low), %: 3 (3%)
Patients with MDD [1]; men only
  CSFQ Arousal/Excitement: Improved (Low→Normal), %: 2%
  CSFQ Arousal/Excitement: Remained Low, %: 79%
  CSFQ Arousal/Excitement: Remained Normal, %: 15%
  CSFQ Arousal/Excitement: Worsened (Normal→Low), %: 4%
  CSFQ Desire/Frequency: Improved (Low→Normal), %: 13%
  CSFQ Desire/Frequency: Remained Low, %: 77%
  CSFQ Desire/Frequency: Remained Normal, %: 9%
  CSFQ Desire/Frequency: Worsened (Normal→Low), %: 2%
  CSFQ Desire/Interest: Improved (Low→Normal), %: 2%
  CSFQ Desire/Interest: Remained Low, %: 81%
  CSFQ Desire/Interest: Remained Normal, %: 17%
  CSFQ Desire/Interest: Worsened (Normal→Low), %: 0 (0%)
  CSFQ Orgasm/Completion: Improved (Low→Normal), %: 9%
  CSFQ Orgasm/Completion: Remained Low, %: 68%
  CSFQ Orgasm/Completion: Remained Normal, %: 15%
  CSFQ Orgasm/Completion: Worsened (Normal→Low), %: 9%
  CSFQ Pleasure: Improved (Low→Normal), %: 2%
  CSFQ Pleasure: Remained Low, %: 91%
  CSFQ Pleasure: Remained Normal, %: 6%
  CSFQ Pleasure: Worsened (Normal→Low), %: 0 (0%)
  CSFQ Total Score: Improved (Low→Normal), %: 15%
  CSFQ Total Score: Remained Low, %: 40%
  CSFQ Total Score: Remained Normal, %: 43%
  CSFQ Total Score: Worsened (Normal→Low), %: 2%
Patients with MDD [1]; women only
  CSFQ Arousal/Excitement: Improved (Low→Normal), %: 9%
  CSFQ Arousal/Excitement: Remained Low, %: 88%
  CSFQ Arousal/Excitement: Remained Normal, %: 1 (1%)
  CSFQ Arousal/Excitement: Worsened (Normal→Low), %: 1 (1%)
  CSFQ Desire/Frequency: Improved (Low→Normal), %: 13%
  CSFQ Desire/Frequency: Remained Low, %: 74%
  CSFQ Desire/Frequency: Remained Normal, %: 9%
  CSFQ Desire/Frequency: Worsened (Normal→Low), %: 4%
  CSFQ Desire/Interest: Improved (Low→Normal), %: 10%
  CSFQ Desire/Interest: Remained Low, %: 76%
  CSFQ Desire/Interest: Remained Normal, %: 9%
  CSFQ Desire/Interest: Worsened (Normal→Low), %: 4%
  CSFQ Orgasm/Completion: Improved (Low→Normal), %: 15%
  CSFQ Orgasm/Completion: Remained Low, %: 61%
  CSFQ Orgasm/Completion: Remained Normal, %: 18%
  CSFQ Orgasm/Completion: Worsened (Normal→Low), %: 6%
  CSFQ Pleasure: Improved (Low→Normal), %: 7%
  CSFQ Pleasure: Remained Low, %: 91%
  CSFQ Pleasure: Remained Normal, %: 1 (1%)
  CSFQ Pleasure: Worsened (Normal→Low), %: 0 (0%)
  CSFQ Total Score: Improved (Low→Normal), %: 16%
  CSFQ Total Score: Remained Low, %: 43%
  CSFQ Total Score: Remained Normal, %: 37%
  CSFQ Total Score: Worsened (Normal→Low), %: 3%
Patients with MDD [2]
  effect on MDD: did not demonstrate a statistically significant effect
